Measured values taken from patent publication US9046767B2, “Photoacid generator, photoresist, coated substrate, and method of forming an electronic device” (ROHM AND HAAS ELECTRONIC MATERIALS LLC, priority 2013, dated 2015).

Assay: Solubility evaluation of photoacid generators in organic solvents
Assay type: physicochemical
Details: 2 weight percent, room temperature; for Solubility in 2-Heptanone: solvent 2-Heptanone; for Solubility in PGMEA: solvent PGMEA; for Solubility in 2-Hepanone/n-Butyl Propionate (1:1 w/w): solvent blend 1:1 w/w; for Solubility in n-Butyl Acetate: solvent n-Butyl Acetate
Method: The photoacid generators were evaluated for solubility in a selection of organic solvents. Solubility of each of the compounds PAG-2, PAG-A1, PAG-A2 were obtained for attempts to completely dissolve the PAG at 2 weight percent at room temperature in different organic solvents and solvent blends. The results for the solubility tests (i.e., where the PAG is observed to be completely soluble in the solvent, or is only partially soluble or insoluble based on the presence of insoluble material) are shown in Table 1, where “O” indicates solubility at 2 weight percent, and “X” indicates partial solubility or insolubility at 2 weight percent.

Molecule | Solubility in 2-Heptanone | Solubility in PGMEA | Solubility in 2-Hepanone/n-Butyl Propionate (1:1 w/w) | Solubility in n-Butyl Acetate
CC1(C)OCC(C2OC(C)(C)OC2COC(=O)COc2ccc([S+](c3ccccc3)c3ccccc3)cc2)O1.O=C(OCC12CC3CC(CC(O)(C3)C1)C2)C(F)(F)S(=O)(=O)[O-] (stereo not drawn) [PAG-A2, 4-(2-oxo-2-(2,2,2′,2′-tetramethyl-4,4′-bis(1,3-dioxolan)-5-yl-methoxyethoxy)phenyl)diphenylsulfonium 1,1-difluoro-2-(3-hydroxyadamantan-1-yl-methoxy)-2-oxoethanesulfonate] | ◯ | ◯ | ◯ | ◯
4-(2-oxo-2-(2,2,2′,2′-tetramethyl-4,4′-bis(1,3-dioxolan)-5-yl-methoxyethoxy)phenyl)diphenylsulfonium 1-adamantyl-3,3,4,4-tetrafluorobutane sulfonate [PAG-A1] | ◯ | ◯ | ◯ | ◯
Triphenylsulfonium 1,1-difluoro-2-((-3-hydroxyadamantan-1-yl)methoxy)-2-oxoethanesulfonate [C. PAG 2, reference compound] | X (“X” indicates partial solubility or insolubility at 2 weight percent) | X (“X” indicates partial solubility or insolubility at 2 weight percent) | X (“X” indicates partial solubility or insolubility at 2 weight percent) | X (“X” indicates partial solubility or insolubility at 2 weight percent)
